As a reminder, the IC50 is the point on the concentration scale where inhibition reaches its midpoint.

Structures are written as SMILES. Like-named read-outs stand apart in the source and are kept apart here.

One experiment concerns the target human TLR9 (Homo sapiens (Human), UniProt Q9NR96). The experiment is described as follows: TLR9 inhibition reporter assay (HEK-Blue SEAP).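 Also: SEAP driven by an IFN-β minimal promoter with NF-κB and AP-1 sites, read after 22 h, compounds dosed 0.05 nM–50 µM, inhibition scaled between agonist plus DMSO and reference-inhibitor wells.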 As to conditions: read-out: TLR9 IC50. A general note: A reporter such as luciferase makes a cellular process visible.
In the next experiment the target is human TLR7 (Homo sapiens (Human), UniProt Q9NYK1). In words: TLR7 inhibition reporter assay (HEK-Blue SEAP). Format: cell-based.
In another experiment the target is human TLR8 (Homo sapiens (Human), UniProt Q9NR97). The experiment is described as follows: TLR8 inhibition reporter assay (HEK-Blue SEAP).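 Also: SEAP driven by IFN-β minimal promoter carrying NF-κB and AP-1 sites, compounds dosed 0.05 nM to 50 µM for 22 h, inhibition scaled between agonist-plus-DMSO and reference-inhibitor wells.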 As to conditions: read-out: TLR8 IC50.
The mark [1] stands for this setting: HEK-Blue human TLR9 cells, ODN2006 5 nM.
Where [2] appears, read: HEK-Blue human TLR7 cells, gardiquimod 7.5 μM.
[3] abbreviates: HEK-Blue human TLR8 cells, R848 15.9 μM.
The mark [4] stands for this setting: HEK-Blue cells overexpressing human TLR9, ODN2006 5 nM stimulation, SEAP reporter.
The mark [5] stands for this setting: HEK-Blue cells overexpressing human TLR7, gardiquimod 7.5 μM stimulation, SEAP reporter.
Setting [6] is: HEK-Blue cells overexpressing human TLR8, R848 15.9 μM stimulation, SEAP reporter.
[7] abbreviates: HEK-Blue cells overexpressing human TLR9, SEAP reporter, ODN2006 5 nM.
The mark [8] stands for this setting: HEK-Blue cells overexpressing human TLR7, SEAP reporter, gardiquimod 7.5 μM.
Setting [9] is: HEK-Blue cells overexpressing human TLR8, SEAP reporter, R848 15.9 μM.

Sequence of human TLR8 (Q9NR97 27-1041): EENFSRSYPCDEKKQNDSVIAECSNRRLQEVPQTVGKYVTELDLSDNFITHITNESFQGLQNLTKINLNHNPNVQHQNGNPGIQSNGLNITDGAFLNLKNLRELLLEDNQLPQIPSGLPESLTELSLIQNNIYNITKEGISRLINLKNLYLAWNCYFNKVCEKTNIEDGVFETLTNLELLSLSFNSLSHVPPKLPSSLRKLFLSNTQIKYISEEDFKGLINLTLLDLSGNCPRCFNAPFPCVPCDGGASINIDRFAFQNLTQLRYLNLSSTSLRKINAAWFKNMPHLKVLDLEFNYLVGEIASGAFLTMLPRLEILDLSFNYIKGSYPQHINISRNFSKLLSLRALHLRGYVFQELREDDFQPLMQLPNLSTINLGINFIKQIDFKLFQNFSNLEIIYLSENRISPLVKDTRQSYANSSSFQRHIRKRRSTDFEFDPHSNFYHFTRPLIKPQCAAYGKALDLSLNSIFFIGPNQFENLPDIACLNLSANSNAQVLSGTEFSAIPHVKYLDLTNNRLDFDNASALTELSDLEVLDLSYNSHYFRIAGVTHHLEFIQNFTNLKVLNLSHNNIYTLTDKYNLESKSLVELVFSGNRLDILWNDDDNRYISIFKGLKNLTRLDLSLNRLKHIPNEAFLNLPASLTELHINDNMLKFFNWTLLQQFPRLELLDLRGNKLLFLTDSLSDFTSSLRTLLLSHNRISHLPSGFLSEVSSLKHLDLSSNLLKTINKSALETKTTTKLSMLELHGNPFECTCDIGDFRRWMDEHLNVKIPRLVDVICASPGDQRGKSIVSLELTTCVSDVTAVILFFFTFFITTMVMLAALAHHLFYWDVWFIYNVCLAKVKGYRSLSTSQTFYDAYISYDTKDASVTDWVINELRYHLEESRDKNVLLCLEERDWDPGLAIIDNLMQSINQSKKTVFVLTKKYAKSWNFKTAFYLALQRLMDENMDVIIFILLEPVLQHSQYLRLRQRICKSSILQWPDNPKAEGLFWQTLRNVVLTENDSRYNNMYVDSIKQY
Sequence of human TLR7 (Q9NYK1 27-1049): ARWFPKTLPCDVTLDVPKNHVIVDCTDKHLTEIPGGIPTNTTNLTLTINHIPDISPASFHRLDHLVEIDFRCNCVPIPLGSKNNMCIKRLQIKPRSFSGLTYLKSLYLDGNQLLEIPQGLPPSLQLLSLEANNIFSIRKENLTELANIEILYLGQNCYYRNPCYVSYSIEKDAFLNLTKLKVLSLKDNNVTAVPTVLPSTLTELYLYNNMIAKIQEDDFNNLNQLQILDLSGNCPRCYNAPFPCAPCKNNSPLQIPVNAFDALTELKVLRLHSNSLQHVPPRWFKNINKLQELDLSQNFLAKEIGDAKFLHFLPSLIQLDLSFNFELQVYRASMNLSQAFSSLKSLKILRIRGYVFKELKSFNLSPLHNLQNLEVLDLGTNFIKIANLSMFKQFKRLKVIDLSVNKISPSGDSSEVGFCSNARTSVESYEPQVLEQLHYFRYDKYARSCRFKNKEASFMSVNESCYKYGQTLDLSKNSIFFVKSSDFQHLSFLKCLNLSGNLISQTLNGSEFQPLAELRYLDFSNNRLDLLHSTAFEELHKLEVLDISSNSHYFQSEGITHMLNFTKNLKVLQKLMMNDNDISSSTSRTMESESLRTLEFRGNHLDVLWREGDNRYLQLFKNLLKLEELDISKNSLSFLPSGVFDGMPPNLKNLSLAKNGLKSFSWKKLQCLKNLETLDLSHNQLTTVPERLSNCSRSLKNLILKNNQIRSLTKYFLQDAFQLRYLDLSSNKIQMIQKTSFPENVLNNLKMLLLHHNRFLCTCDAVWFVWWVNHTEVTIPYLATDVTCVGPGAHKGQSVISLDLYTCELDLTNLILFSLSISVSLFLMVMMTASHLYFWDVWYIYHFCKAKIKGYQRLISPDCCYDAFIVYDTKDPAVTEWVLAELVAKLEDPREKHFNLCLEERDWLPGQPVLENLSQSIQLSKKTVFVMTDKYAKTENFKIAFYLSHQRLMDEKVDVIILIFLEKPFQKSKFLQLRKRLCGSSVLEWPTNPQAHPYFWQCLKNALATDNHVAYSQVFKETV
Sequence of human TLR9 (Q9NR96 26-1032): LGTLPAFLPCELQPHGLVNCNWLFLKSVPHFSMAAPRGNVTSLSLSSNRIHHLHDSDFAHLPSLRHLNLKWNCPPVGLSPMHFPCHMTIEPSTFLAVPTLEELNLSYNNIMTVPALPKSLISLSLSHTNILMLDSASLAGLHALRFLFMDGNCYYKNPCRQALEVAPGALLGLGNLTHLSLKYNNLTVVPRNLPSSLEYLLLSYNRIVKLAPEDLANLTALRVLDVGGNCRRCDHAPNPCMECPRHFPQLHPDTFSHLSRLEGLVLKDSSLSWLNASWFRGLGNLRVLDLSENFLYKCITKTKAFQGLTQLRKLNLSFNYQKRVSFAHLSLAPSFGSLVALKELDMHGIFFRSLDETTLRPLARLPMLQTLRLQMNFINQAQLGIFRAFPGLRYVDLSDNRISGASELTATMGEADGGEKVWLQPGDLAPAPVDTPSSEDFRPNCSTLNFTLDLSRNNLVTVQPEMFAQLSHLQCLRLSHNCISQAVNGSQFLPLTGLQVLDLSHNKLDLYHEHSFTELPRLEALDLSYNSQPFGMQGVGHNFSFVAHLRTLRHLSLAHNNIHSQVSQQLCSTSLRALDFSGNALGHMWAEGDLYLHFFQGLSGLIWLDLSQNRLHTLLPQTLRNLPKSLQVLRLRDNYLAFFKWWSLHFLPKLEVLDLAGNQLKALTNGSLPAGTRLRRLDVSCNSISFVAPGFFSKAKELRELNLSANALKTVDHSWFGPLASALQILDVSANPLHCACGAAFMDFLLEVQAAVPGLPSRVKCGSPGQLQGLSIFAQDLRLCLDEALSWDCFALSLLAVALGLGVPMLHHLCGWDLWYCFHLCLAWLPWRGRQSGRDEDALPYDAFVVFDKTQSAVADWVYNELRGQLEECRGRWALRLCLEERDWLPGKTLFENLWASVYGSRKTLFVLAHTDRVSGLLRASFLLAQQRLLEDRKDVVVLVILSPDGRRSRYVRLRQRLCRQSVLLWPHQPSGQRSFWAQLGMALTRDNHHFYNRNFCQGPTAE
Method for human TLR9: HEK-Blue™-cells (Invivogen) overexpressing human TLR7, TLR8 or TLR9 receptors were used for screening inhibitors of these receptors using an inducible SEAP (secreted embryonic alkaline phosphatase) reporter gene under the control of the IFN-β minimal promoter fused to five NF-κB and AP-1-binding sites. Briefly, cells are seeded into Greiner 384 well plates (15000 cells per well for TLR7, 20,000 for TLR8 and 25,000 for TLR9) and then treated with test compounds in DMSO to yield a final dose response concentration range of 0.05 nM-50 μM. After a 30 minute compound pre-treatment at room temperature, the cells are then stimulated with a TLR7 ligand (gardiquimod at a final concentration of 7.5 μM), TLR8 ligand (R848 at a final concentration of 15.9 μM) or TLR9 ligand (ODN2006 at a final concentration of 5 nM) to activate NF-κB and AP-1 which induce the production of SEAP. After a 22 hour incubation at 37° C., 5% CO2, SEAP levels are determined with the addition of HEK-Blue™ Detection reagent (Invivogen), a cell culture medium that allows for detection of SEAP, according to manufacturer's specifications.

Regarding `Cc1c(-c2[nH]c3ccc(N4C[C@H](C)N(C(=O)CN(C)C(C)C)C[C@H]4C)nc3c2C(C)C)cn2ncnc2c1C` [Example 938], the results for the IC50 at human TLR9 (setting [1]), on human TLR7 (setting [2]) and at human TLR8 (setting [3]) were 8.56 µM, 0.0026 µM and 0.0049 µM, respectively.
For the molecule `Cc1c(-c2[nH]c3ccc(C4CC5(C4)CN(CC4(C)COC4)C5)nc3c2C(C)C)cn2ncnc2c1C` [Example 1025], the IC50 at human TLR9 (setting [1]) was found to be 5.86 µM; against human TLR7 (setting [2]), 0.003 µM; at human TLR8 (setting [3]) it was 0.00086 µM.
As for `COc1cc(-c2[nH]c3ccc(N4CCN(C5CCOCC5)CC4)nc3c2C(C)C)cn2ncnc12` [Example 104], the IC50 was found to be 4.16 µM on human TLR9 (setting [4]), 0.0023 µM against human TLR7 (setting [5]) and 0.00075 µM at human TLR8 (setting [6]).
As for `Cc1c(-c2[nH]c3ccc(C4CN(C5CCOCC5)CCO4)nc3c2C(C)C)cn2ncnc2c1C` (stereo not drawn) [Example 664], the IC50 was 38.5 µM at human TLR9 (setting [7]), 0.022 µM on human TLR7 (setting [8]) and 0.014 µM on human TLR8 (setting [9]).
As for `CNC1CCC(c2ccc3[nH]c(-c4cn(C)c5ncncc45)c(C(C)C)c3n2)CC1` (stereo not drawn) [Example 301], the IC50 came out at 4.09 µM on human TLR9 (setting [4]), 0.002 µM against human TLR7 (setting [5]) and 0.042 µM at human TLR8 (setting [6]).
As for `COc1cc(-c2[nH]c3ccc(C4CCC(N(C)C)CC4)nc3c2C(C)C)cn2ncnc12` (stereo not drawn) [Example 177], the IC50 on human TLR9 (setting [4]) was found to be 0.148 µM; at human TLR7 (setting [5]) it was 0.00028 µM; on human TLR8 (setting [6]) it was 0.0025 µM.
Take `COc1cc(-c2[nH]c3ccc(C4CCC(N(C)C5COC5)CC4)nc3c2C(C)C)cn2ncnc12` (stereo not drawn) [Example 240]: the IC50 was 5.08 µM at human TLR9 (setting [4]), 0.0054 µM against human TLR7 (setting [5]) and 0.016 µM at human TLR8 (setting [6]).
In the case of `Cc1c(-c2[nH]c3ccc(N4C[C@H]5C[C@@H](C4)N5)nc3c2C(C)C)cn2ncnc2c1C` [Example 985], the IC50 is 3.9 µM at human TLR9 (setting [1]), 0.0016 µM against human TLR7 (setting [2]) and 0.0011 µM on human TLR8 (setting [3]).
Take `COc1cc(-c2[nH]c3ccc(C4CCC(N5CCOCC5)CC4)nc3c2C(C)C)cn2ncnc12` (stereo not drawn) [Example 1071]: the IC50 stood at 5.95 µM on human TLR9 (setting [1]), 0.0037 µM at human TLR7 (setting [2]) and 0.025 µM on human TLR8 (setting [3]).
With `Cc1c(-c2[nH]c3ccc(C4CC(N(C)CC5(C)COC5)C4)nc3c2C(C)C)cn2ncnc2c1C` (stereo not drawn) [Example 626], the IC50 on human TLR9 (setting [7]) was 13.5 µM; on human TLR7 (setting [8]), 0.029 µM; on human TLR8 (setting [9]) it was 0.008 µM.
As for `Cc1cc(-c2[nH]c3cc(F)c(C4CCNCC4)nc3c2C(C)C)cn2ncnc12` [Example 11, 6-(6-fluoro-3-isopropyl-5-(piperidin-4-yl)-1H-pyrrolo[3,2-b]pyridin-2-yl)-8-methyl-[1,2,4]triazolo[1,5-a]pyridine], the IC50 on human TLR9 (setting [4]) is 6.79 µM; at human TLR7 (setting [5]) it was 0.0017 µM; on human TLR8 (setting [6]), 0.021 µM.
For `COc1cc(-c2[nH]c3ccc(C4CCC(N(C)CCS(C)(=O)=O)CC4)nc3c2C(C)C)cn2ncnc12` (stereo not drawn) [Example 241], in that order: 1.75 µM, 0.002 µM and 0.0029 µM.
For `CC(C)c1c(-c2cc(CO)c3ncnn3c2)[nH]c2ccc(N3CCC(NC4COC4)CC3)nc12` [Example 81], the IC50 on human TLR9 (setting [4]) was found to be 20.1 µM; at human TLR7 (setting [5]), 0.0013 µM; on human TLR8 (setting [6]) it was 0.00095 µM.
For `Cc1c(-c2[nH]c3ccc(C4CCC(N5CC6(CCOC6)C5)CC4)nc3c2C(C)C)cn2ncnc2c1C` (stereo not drawn) [Example 1065], the results for the IC50 at human TLR9 (setting [1]), against human TLR7 (setting [2]) and on human TLR8 (setting [3]) were 2.8 µM, 0.0011 µM and 0.0011 µM, respectively.
As to `CC(C)c1c(-c2cn(C)c3ncccc23)[nH]c2ccc(CCC3CN(C(=O)CN(C)C)C3)nc12` [Example 703], the IC50 at human TLR9 (setting [7]) came out at 0.326 µM; against human TLR7 (setting [8]), 0.0089 µM; on human TLR8 (setting [9]), 0.016 µM.
Regarding `CCN(C)C1CCC(c2nc3c(C(C)C)c(-c4cc(OC)c5ncnn5c4)[nH]c3cc2C)CC1` (stereo not drawn) [Example 320], the IC50 came out at 1.48 µM on human TLR9 (setting [4]), 0.001 µM at human TLR7 (setting [5]) and 0.022 µM on human TLR8 (setting [6]).
Turning to `COc1ncc(CN(C)C2CCC(c3ccc4[nH]c(-c5cn6ncnc6c(C)c5C)c(C(C)C)c4n3)CC2)cn1` (stereo not drawn) [Example 405], the IC50 stood at 1.43 µM at human TLR9 (setting [7]), 0.0036 µM at human TLR7 (setting [8]) and 0.0025 µM at human TLR8 (setting [9]).
Turning to `Cc1c(-c2[nH]c3ccc(C4CCC(N5CC(C)(O)C5)CC4)nc3c2C(C)C)cn2ncnc2c1C` (stereo not drawn) [Example 1041], the IC50 on human TLR9 (setting [1]) is 2.42 µM; against human TLR7 (setting [2]), 0.00049 µM; at human TLR8 (setting [3]) it was 0.00085 µM.
As to `CC(C)c1c(-c2cn(C)c3ncncc23)[nH]c2ccc(C3CCC(NCC(=O)N(C)C)CC3)nc12` (stereo not drawn) [Example 303], the IC50 on human TLR9 (setting [4]) is 1.23 µM; against human TLR7 (setting [5]) it was 0.00055 µM; at human TLR8 (setting [6]), 0.0069 µM.
In the case of `Cc1c(-c2[nH]c3ccc(C4CCC(N(C)C5COC5)CC4)nc3c2C(C)C)cn2ncnc2c1C` (single isomer, unassigned) [Example 430, N-(4-(2-(7,8-dimethyl-[1,2,4]triazolo[1,5-a]pyridin-6-yl)-3-isopropyl-1H-pyrrolo[3,2-b]pyridin-5-yl)cyclohexyl)-N-methyloxetan-3-amine], the values for the IC50 at human TLR9 (setting [7]), on human TLR7 (setting [8]) and at human TLR8 (setting [9]) were 15.1 µM, 0.013 µM and 0.014 µM, respectively.
With `COc1cc(-c2[nH]c3cc(C)c(C4CCC(N(C)CCC#N)CC4)nc3c2C(C)C)cn2ncnc12` (stereo not drawn) [Example 340], the values for the IC50 on human TLR9 (setting [4]), against human TLR7 (setting [5]) and on human TLR8 (setting [6]) were 1.87 µM, 0.0014 µM and 0.051 µM, respectively.
Consider `Cc1c(-c2[nH]c3ccc(N4CCN(CC(C)(C)O)C[C@@H]4C)nc3c2C(C)C)cn2ncnc2c1C` [Example 802], for which the IC50 is 17.9 µM at human TLR9 (setting [1]), 0.003 µM at human TLR7 (setting [2]) and 0.00065 µM on human TLR8 (setting [3]).
As for `Cc1cnc(CNC2CCC(c3ccc4[nH]c(-c5cn(C)c6ncccc56)c(C(C)C)c4n3)CC2)cn1` (stereo not drawn) [Example 207], the IC50 at human TLR9 (setting [4]) came out at 0.253 µM; against human TLR7 (setting [5]) it was 0.0019 µM; on human TLR8 (setting [6]) it was 0.0044 µM.
Turning to `Cc1c(-c2[nH]c3ccc(C4CCC(N5CCC(F)(F)CC5)CC4)nc3c2C(C)C)cn2ncnc2c1C` (stereo not drawn) [Example 381], the IC50 at human TLR9 (setting [4]) was 8.06 µM; against human TLR7 (setting [5]), 0.0037 µM; at human TLR8 (setting [6]), 0.0055 µM.
On to `Cc1cc(-c2[nH]c3ccc(C4CN(C(C)C)CCO4)nc3c2C(C)C)cn(C)c1=O` (stereo not drawn) [Example 678], for which the IC50 was more than 50 µM on human TLR9 (setting [7]), 0.036 µM against human TLR7 (setting [8]) and 0.029 µM on human TLR8 (setting [9]).
Consider `COc1cc(-c2[nH]c3ccc(C4CCC(N(CCS(C)(=O)=O)CCS(C)(=O)=O)C4)nc3c2C(C)C)cn2ncnc12` (stereo not drawn) [Example 717], for which the results for the IC50 at human TLR9 (setting [7]), on human TLR7 (setting [8]) and at human TLR8 (setting [9]) were 2.52 µM, 1.06 µM and 1.1 µM, respectively.
As to `COc1cc(-c2[nH]c3ccc(OCC4CCN(C)CC4)nc3c2C(C)C)cn2ncnc12` [Example 590, 6-(3-isopropyl-5-((1-methylpiperidin-4-yl)methoxy)-1H-pyrrolo[3,2-b]pyridin-2-yl)-8-methoxy-[1,2,4]triazolo[1,5-a]pyridine], the IC50 on human TLR9 (setting [7]) was 3.55 µM; at human TLR7 (setting [8]), 0.003 µM; on human TLR8 (setting [9]), 0.0047 µM.
Regarding `Cc1c(-c2[nH]c3ccc(N4C[C@H](C)N(C(=O)CN5CCCC5)C[C@H]4C)nc3c2C(C)C)cn2ncnc2c1C` [Example 936], the IC50 on human TLR9 (setting [1]) worked out at 4.64 µM; against human TLR7 (setting [2]), 0.00056 µM; on human TLR8 (setting [3]), 0.0035 µM.
As to `CCCN1CC2(C1)CN(c1ccc3[nH]c(-c4cn5ncnc5c(C)c4C)c(C(C)C)c3n1)C2` [Example 1015], the values for the IC50 at human TLR9 (setting [1]), at human TLR7 (setting [2]) and at human TLR8 (setting [3]) were 2.38 µM, 0.0013 µM and 0.0078 µM, respectively.

The record behind these values is US10544143B2, “4-azaindole compounds” (BRISTOL-MYERS SQUIBB COMPANY, priority 2017, dated 2020).
